Data set [1] deals with LPS-induced TNFα release in d-U937 cells. As to the kind of experiment: LPS-induced TNFα release in d-U937 cells. It is filed as cell-based. The following applies: Homo sapiens, dU937, 4 h; read-out: LPS/TNFα REC50 d-U937. In short, it runs like this: (§1)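 U937 cells differentiated with PMA (100 ng/mL, 48–72 hr), pre-incubated with compound 2 hr, then stimulated with 0.1 μg/mL E. coli O111:B4 LPS for 4 hr. Supernatant TNFα and IL-8 measured by sandwich ELISA; REC50 (TNFα) and IC50 (IL-8 inhibition vs vehicle) taken from concentration-response curves.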

Data set [2] deals with LPS-induced IL-8 release in d-U937 cells. As to the kind of experiment: LPS-induced IL-8 release in d-U937 cells. It is filed as cell-based. To be noted: Homo sapiens, dU937, 0.1 μg/mL LPS, 4 hr. In outline: as §1
For data set [3], the system named is LPS-induced TNFα release in THP-1 cells. As to the kind of experiment: LPS-induced TNFα release in THP-1 cells. It is filed as cell-based. The following applies: Homo sapiens, 3 μg/mL LPS, 4 hr. In outline:
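Human monocytic cells were stimulated with 3 μg/mL E. coli LPS for 4 hr. Supernatant TNFα was measured by sandwich ELISA. Inhibition was taken relative to vehicle control, and IC50 derived from the concentration-response curve.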

The target in data set [4] is T1, p38 MAPKα isoform (MAPK14: Invitrogen) (Homo sapiens, UniProt Q16539).
T1 construct: purchased Invitrogen
T1 sequence (Q16539 whole entry, canonical isoform): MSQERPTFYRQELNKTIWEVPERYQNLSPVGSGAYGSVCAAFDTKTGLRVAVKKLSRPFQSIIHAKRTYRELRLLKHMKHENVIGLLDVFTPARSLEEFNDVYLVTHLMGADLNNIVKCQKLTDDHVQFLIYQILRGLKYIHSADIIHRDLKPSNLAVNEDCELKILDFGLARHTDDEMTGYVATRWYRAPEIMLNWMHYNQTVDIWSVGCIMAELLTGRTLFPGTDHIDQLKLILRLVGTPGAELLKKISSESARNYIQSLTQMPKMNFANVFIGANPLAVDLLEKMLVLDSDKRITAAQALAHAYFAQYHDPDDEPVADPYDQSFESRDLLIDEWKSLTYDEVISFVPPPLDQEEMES
Kind of data set: p38 MAPKα enzyme inhibition assay (FRET, Z-LYTE, via MAPKAP-K2 activation). The following applies: 2 hr pre-incubation, ATP 10.0 μM; read-out: Enzyme Inhibition IC50 p38α. It is filed as biochemical.

The subject of data set [5] is Poly I:C-induced ICAM-1 expression in BEAS2B cells. Kind of data set: Poly I:C-induced ICAM-1 induction in BEAS2B cells. It is filed as cell-based. To be noted: Homo sapiens, BEAS-2B, poly I:C 1 μg/mL, 18 hr, read-out: PolyI:C/ICAM1 IC50 BEAS2B. In short, it runs like this: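 Human bronchial epithelial BEAS2B cells were pre-incubated with compound for 2 h, then transfected with poly I:C at 1 μg/mL. Surface ICAM-1 was measured 18 h later by cell-based ELISA (OD450–655), normalised to crystal-violet cell number (OD595). IC50 was taken from the concentration–response curve against vehicle.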

The target in data set [6] is T2, Recombinant, phosphorylated p38 MAPKγ (MAPK12:Invitrogen) (Homo sapiens, UniProt P53778).
T2 construct: purchased Invitrogen
T2 sequence (P53778 1-367): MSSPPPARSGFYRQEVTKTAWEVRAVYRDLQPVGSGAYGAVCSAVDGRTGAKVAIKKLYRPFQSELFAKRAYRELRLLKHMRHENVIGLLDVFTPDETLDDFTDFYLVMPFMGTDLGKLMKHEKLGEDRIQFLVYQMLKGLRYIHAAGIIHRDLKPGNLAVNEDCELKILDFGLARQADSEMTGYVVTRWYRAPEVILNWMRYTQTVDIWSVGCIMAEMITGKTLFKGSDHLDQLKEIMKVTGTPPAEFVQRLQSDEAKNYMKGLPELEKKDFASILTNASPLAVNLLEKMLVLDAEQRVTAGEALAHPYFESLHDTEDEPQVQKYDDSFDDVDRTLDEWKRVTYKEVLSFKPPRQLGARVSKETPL
As to the kind of experiment: p38 MAPKγ enzyme inhibition assay (FRET, Z-LYTE). It is filed as biochemical. The following applies: 2 hr pre-incubation, ATP 100 μM; read-out: Enzyme Inhibition IC50 p38γ.

Data set [7] relates to Differentiated U937 cells. As to the kind of experiment: MTT assay: cell viability on exposure to test compounds. The format is cell-based, human. To be noted: percentage loss of cell viability vs vehicle, 1 μg/mL; for MTT Assay (Viability) 4 h d-U937: 5% FCS; for MTT Assay (Viability) 24 h d-U937: 10% FCS. In short, it runs like this: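 Differentiated U937 cells were pre-incubated with compound for either 4 h in 5% FCS or 24 h in 10% FCS, then given MTT for 1 h. Formazan was dissolved in DMSO and read at 550 nm. Viability loss is expressed as % versus 0.5% DMSO vehicle, so an apparent gain appears as a negative value.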
In general terms: Tetrazolium assays rely on reduction of a dye to a coloured formazan, in cell work by metabolically active cells.

As to `COCC(=O)Nc1cc(Oc2ccc(NC(=O)Nc3cc(C(C)(C)C)nn3-c3cccc(O)c3)c3ccccc23)ccn1` [Example 32, N-(4-(4-(3-(3-tert-butyl-1-(3-hydroxyphenyl)-1H-pyrazol-5-yl)ureido)naphthalen-1-yloxy)pyridin-2-yl)-2-methoxyacetamide], the EC50 in data set [1] came out at 0.1 nM. Further, the IC50 came out at 0.7 nM in data set [2]; 0.7 nM in data set [3]; 7.7 nM in data set [4]; 5.5 nM in data set [5]; 78.4 nM in data set [6]. For the same compound, the “MTT Assay (Viability) 4 h d-U937” value in data set [7] is reported as 5.8%. Also, the “MTT Assay (Viability) 24 h d-U937” value in data set [7] was 42.2%.

Consider `CNC(=O)Nc1cc(Oc2ccc(NC(=O)Nc3cc(C(C)(C)C)nn3-c3ccc(O)cc3)c3ccccc23)ccn1` [Example 33, 1-(3-tert-butyl-1-(4-hydroxyphenyl)-1H-pyrazol-5-yl)-3-(4-(2-(3-methylureido)pyridin-4-yloxy)naphthalen-1-yl)urea], for which, in data set [1], the EC50 was determined as 0.7 nM. Further, the IC50 in data set [2] turned out to be 7 nM; in data set [3], 1 nM; in data set [4], 5.3 nM; in data set [5], 4.4 nM; in data set [6], 180 nM. Besides, the “MTT Assay (Viability) 4 h d-U937” value in data set [7] was −1.3%. Also, the “MTT Assay (Viability) 24 h d-U937” value in data set [7] is −24.1%.

With `COCC(=O)Nc1cc(Oc2ccc(NC(=O)Nc3cc(C(C)(C)C)nn3-c3cccc(OC)c3)c3ccccc23)ccn1` [Example 36, N-(4-(4-(3-(3-tert-butyl-1-(3-methoxyphenyl)-1H-pyrazol-5-yl)ureido)naphthalen-1-yloxy)pyridin-2-yl)-2-methoxyacetamide], the EC50 in data set [1] was determined as 0.1 nM. Also, the IC50 in data set [2] turned out to be 0.8 nM; in data set [3], 0.8 nM; in data set [4] it was 15.1 nM; in data set [5], 4.9 nM; in data set [6], 153 nM. Further, the “MTT Assay (Viability) 4 h d-U937” value in data set [7] is −5.2%. Besides, in data set [7], the “MTT Assay (Viability) 24 h d-U937” value was −1.6%.

As to `CNC(=O)Nc1cc(Oc2ccc(NC(=O)Nc3cc(C(C)(C)C)nn3-c3ccc(OC)cc3)c(C)c2C)ccn1` [Example 37, 1-(4-(4-(3-(3-tert-butyl-1-(4-methoxyphenyl)-1H-pyrazol-5-yl)ureido)-2,3-dimethylphenoxy)pyridin-2-yl)-3-methylurea], the EC50 in data set [1] stood at 1.4 nM. Besides, the IC50 in data set [2] was determined as 18.1 nM; in data set [3], 1.5 nM; in data set [4], 29.1 nM; in data set [5] it was 2.6 nM; in data set [6], 117 nM. In data set [7], the “MTT Assay (Viability) 4 h d-U937” value turned out to be 5.3%. The “MTT Assay (Viability) 24 h d-U937” value in data set [7] is on record as 42.7%.

For the compound `CNC(=O)Nc1cc(Oc2ccc(NC(=O)Nc3cc(C(C)(C)C)nn3-c3ccc(OC)cc3)c3ccccc23)ccn1` [Example 38, 1-(4-(4-(3-(3-tert-butyl-1-(4-methoxyphenyl)-1H-pyrazol-5-yl)ureido)naphthalen-1-yloxy)pyridin-2-yl)-3-methylurea], the EC50 in data set [1] came out at 18.4 nM. Further, the IC50 in data set [2] was 21.8 nM; in data set [3], 1.7 nM; in data set [4], 15.7 nM; in data set [5] it was 9.8 nM; in data set [6] it was 122 nM. For the same compound, in data set [7], the “MTT Assay (Viability) 4 h d-U937” value is on record as −1.7%. For the same compound, the “MTT Assay (Viability) 24 h d-U937” value in data set [7] is listed as −38.2%.

Turning to `CNC(=O)Nc1cc(Oc2ccc(NC(=O)Nc3cc(C(C)(C)C)nn3-c3ccc(OC)nc3)c(C)c2C)ccn1` [Example 39, 1-(4-(4-(3-(3-tert-butyl-1-(6-methoxypyridin-3-yl)-1H-pyrazol-5-yl)ureido)-2,3-dimethylphenoxy)pyridin-2-yl)-3-methylurea], in data set [1], the EC50 is 1.8 nM. The IC50 in data set [2] was determined as 23.2 nM; in data set [3], 1.8 nM; in data set [4], 30.7 nM; in data set [5], 2.9 nM; in data set [6], 81.8 nM. Also, the “MTT Assay (Viability) 4 h d-U937” value in data set [7] is recorded as −12.6%. In addition, the “MTT Assay (Viability) 24 h d-U937” value in data set [7] is 21.6%.

For `COc1ccc(-n2nc(C(C)(C)C)cc2NC(=O)Nc2ccc(Oc3ccnc(NC(=O)N4CCOCC4)c3)c3ccccc23)cn1` [Example 40, N-(4-(4-(3-(3-tert-butyl-1-(6-methoxypyridin-3-yl)-1H-pyrazol-5-yl)ureido)naphthalen-1-yloxy)pyridin-2-yl)morpholine-4-carboxamide], the EC50 in data set [1] is 0.9 nM. The IC50 in data set [2] is 6.2 nM; in data set [3] it was 1.5 nM; in data set [4], 15.6 nM; in data set [5], 4.8 nM; in data set [6] it was 113 nM. Moreover, the “MTT Assay (Viability) 4 h d-U937” value in data set [7] is given as −12.1%. Besides, in data set [7], the “MTT Assay (Viability) 24 h d-U937” value was −12.0%.

As for `COCC(=O)Nc1cc(Oc2ccc(NC(=O)Nc3cc(C(C)(C)C)nn3-c3ccc(OC(F)(F)F)cc3)c3ccccc23)ccn1` [Example 41, N-(4-(4-(3-(3-tert-butyl-1-(4-(trifluoromethoxy)phenyl)-1H-pyrazol-5-yl)ureido)naphthalen-1-yloxy)pyridin-2-yl)-2-methoxyacetamide], the EC50 in data set [1] is 15.2 nM. Moreover, the IC50 in data set [2] was 10.4 nM; in data set [3], 7.6 nM; in data set [4], 26.1 nM; in data set [5] it was 21.4 nM; in data set [6], 875 nM. In addition, in data set [7], the “MTT Assay (Viability) 4 h d-U937” value is −26.2%. Further, the “MTT Assay (Viability) 24 h d-U937” value in data set [7] is recorded as 1.3%.

Consider `COCC(=O)Nc1cc(Oc2ccc(NC(=O)Nc3cc(C(C)(C)C)nn3-c3ccc(Cl)cc3)c3ccccc23)ccn1` [Example 42, N-(4-(4-(3-(3-tert-butyl-1-(4-chlorophenyl)-1H-pyrazol-5-yl)ureido)naphthalen-1-yloxy)pyridin-2-yl)-2-methoxyacetamide], for which, in data set [1], the EC50 came out at 7.2 nM. The IC50 in data set [2] stood at 18.9 nM; in data set [3], 2.8 nM; in data set [4], 25 nM; in data set [5], 22.2 nM; in data set [6], 239 nM. Besides, in data set [7], the “MTT Assay (Viability) 4 h d-U937” value is −10.7%. In data set [7], the “MTT Assay (Viability) 24 h d-U937” value is recorded as −24.9%.

On to `COCC(=O)Nc1cc(Oc2ccc(NC(=O)Nc3cc(C(C)(C)C)nn3-c3ccc(C(=O)OC)cc3)c3ccccc23)ccn1` [Example 43, methyl 4-(3-tert-butyl-5-(3-(4-((2-(2-methoxyacetamido)pyridin-4-yl)oxy)naphthalen-1-yl)ureido)-1H-pyrazol-1-yl)benzoate], for which, in data set [1], the EC50 came to 1.6 nM. For the same compound, the IC50 is 8.9 nM in data set [2]; 2 nM in data set [3]; 8.3 nM in data set [4]; 1.7 nM in data set [5]; 192 nM in data set [6]. In addition, the “MTT Assay (Viability) 4 h d-U937” value in data set [7] was −12.8%. In data set [7], the “MTT Assay (Viability) 24 h d-U937” value was 0.1%.

For the compound `COCC(=O)Nc1cc(Oc2ccc(NC(=O)Nc3cc(C(C)(C)C)nn3-c3ccc(SC)cc3)c3ccccc23)ccn1` [Example 44, N-(4-(4-(3-(3-tert-butyl-1-(4-(methylthio)phenyl)-1H-pyrazol-5-yl)ureido)naphthalen-1-yloxy)pyridin-2-yl)-2-methoxyacetamide], the EC50 in data set [1] was 0.1 nM. Also, the IC50 in data set [2] is 5.9 nM; in data set [3] it was 1.2 nM; in data set [4], 15.1 nM; in data set [5], 7.5 nM; in data set [6], 194 nM. The “MTT Assay (Viability) 4 h d-U937” value in data set [7] was −4.0%. Besides, the “MTT Assay (Viability) 24 h d-U937” value in data set [7] was −16.4%.

Values taken from patent US9024041B2, “P38 MAP kinase inhibitors” (Respivert Ltd., priority 2010, dated 2015).
